Earlier results in patent EP2117510B1, “PARENTERAL PHARMACEUTICAL COMPOSITION AND METHOD FOR PREPARING THE SAME” (Physica Pharma, priority 2007, dated 2008).

Conditions: water, room temperature (environ 22° C)

CC(C)c1cccc(C(C)C)c1O [Propofol, 2,6-diisopropylphénol]
solubilité dans l'eau: ~160 µg/mL
